The results in this text go back to paper PMC12040169 (PLOS Biology, 2025).

The data set in a line: in vitro. To be noted: human, hela cells, % viability.

As to `CC(CO)(CO)Nc1ccc(C(F)(F)F)cc1[N+](=O)[O-]` [CBK262806], the viability (commonly a read-out of living cells in per cent, often relative to untreated cells) at 28.5 h, 10 µM came to 61.9%. The result for `Cc1c(Cl)cccc1NC(=O)c1cnc2sccn2c1=O` [CBK246518] reads 115%; that for `CC(=O)c1cc(CN(C)C(C)c2ccncn2)cs1` (centres unmarked) [CBK307470], 85.5%.

As for `Cc1nc(Nc2ccc(Cl)cc2)nc(Oc2ccccc2)n1` [CBK003915], the viability at 28.5 h, 10 µM was found to be 101%. The result for `CC(=O)N1C[C@H](O)C[C@H]1C(=O)N1CC[C@H]2NC(=O)[C@H](Cc3ccccc3)NC(=O)C3(C/C=C/C[C@H]2C1)CCOCC3` [CBK292204] reads 88.7%; that for `c1cc2c3c(ccc(CSCCc4ccncc4)c3c1)CC2` [CBK261074G], 90.4%; that for `OC(COc1ccccc1F)CSc1nc(NC2CC2)c2ccccc2n1` (centres unmarked) [CBK297902], 86.7%. The result for `O=C(O)CCCNC(=O)c1cncc(O)c1` [CBK262060] reads 81.8%.

Consider `O=C1c2ccccc2C(=O)N1Cc1nc2ccccc2c(=O)n1CCCN1CCOCC1` [CBK268463], for which the viability at 28.5 h, 10 µM worked out at 96.1%. Turning to `CC(C)(C)OC(=O)N1CCC(c2nc3ccccc3cc2N)CC1` [CBK285038], the viability at 28.5 h, 10 µM is 82.6%. In the case of `Cc1cc(COc2nc3ccccc3nc2N2CCCC2)no1` [CBK115768] it was 109%; in that of `CCOc1ccc(OC(=O)C2CCN(C(=O)CC(C)C)CC2)cc1` [CBK154228], 95.3%.

Regarding `O=C(NC(CN1CCOCC1)c1ccccc1)c1cnc(-c2ccc(Cl)cc2)c(-c2ccncc2)c1` (centres unmarked) [CBK037604], the viability at 28.5 h, 10 µM was found to be 100%. In the case of `CCN(CC)CCn1c(=N)n(CC(=O)OC)c2ccccc21` [CBK262517B] it was 87.3%. Consider `Cn1c(N)nc2c(ncn2[C@H]2C[C@@H](O)[C@@H](CO)O2)c1=O` [CBK201215], for which the viability at 28.5 h, 10 µM was 105%. As for `Clc1ccccc1-c1nccnc1NCc1ccncc1` [CBK037472], the viability at 28.5 h, 10 µM was 89.2%. In the case of `Cc1ccc(NCC2CCN(c3cc(=O)n4oc(C)cc4n3)C2)nc1` (centres unmarked) [CBK305827] it was 90.1%; in that of `COc1cccc(C2(O)CCCC3CN(C(C)=O)CC32)c1` (centres unmarked) [CBK283242], 80.8%; in that of `Cc1cccc(OC(C)C(=O)Nc2ccccc2C(=O)N2CCCCC2)c1` (centres unmarked) [CBK269960], 85.4%. In the case of `COc1cc2c(cc1OC)CN(C(=O)c1ccc3[nH]cnc3c1)CC2` [CBK295331] it was 52.8%; in that of `Nc1cc2cccnc2nc1-c1cccc2cccnc12` [CBK067609], 99.9%; in that of `Nc1nc(N)c2ncn([C@@H]3O[C@H](CO)[C@H](O)C3O)c2n1` (some centres unmarked) [CBK201275], 102%.

Turning to `COC(=O)Nc1ccc2c(c1)N(C(=O)CCN(C)C)c1ccccc1CC2` [CBK262972C], the viability at 28.5 h, 10 µM stood at 87.2%. In the case of `O=C1NC/C=C/CC2(CCN(Cc3ccccc3)CC2)C(=O)NCCOc2ccccc21` [CBK292097] it was 103%; in that of `Cc1ccc(S(=O)(=O)N2C[C@H]3C[C@H](NC(=O)C4CC4C)[C@H]3C2)cc1` (some centres unmarked) [CBK285318], 108%. The result for `CC(C)(C)c1nnc(NS(=O)(=O)c2ccc([N+](=O)[O-])cc2)s1` [CBK045500] reads 93.3%; that for `CN(C)[C@@H]1CN(Cc2cccnc2)C[C@H]1c1cn(C)c2ccccc12` [CBK284875], 110%; that for `CCOc1ccc(C(=O)N2CC(C(N)=O)CCC2C)cn1` (centres unmarked) [CBK305770], 102%. In the case of `CN1CN=C2SC3(COC(c4cccc(Br)c4)OC3)C(=O)N2C1` (centres unmarked) [CBK263700] it was 93.1%; in that of `N#CCn1c(-c2nonc2N)nc2ccccc21` [CBK050974], 92.3%. For `Cc1csc2ncc(C(=O)Nc3ccccc3C(F)(F)F)c(=O)n12` [CBK287456], the viability at 28.5 h, 10 µM stood at 86.4%. The result for `Cc1cc(C(=O)Nc2ccc(S(=O)(=O)Nc3onc(C)c3C)cc2)no1` [CBK268166] reads 95.3%.
